In patent US20140128352A1, “COMPOUNDS AND METHODS FOR MODULATING MITOCHONDRIAL METABOLISM AND REACTIVE OXYGEN SPECIES PRODUCTION” (Buck Institute for Research on Aging, priority 2012, published 2014):
Like-named read-outs stand apart in the source and are kept apart here.

Legend:
[1] = test system: mitochondrial membrane potential (ΔΨm); assay: Membrane potential (ΔΨm) counterscreen with TMRM; details: malate, nigericin
[2] = target: T1, glycerol-3-phosphate dehydrogenase (GPDH) (Rattus norvegicus, UniProt P35571); assay: High-throughput screen: ROS production from glycerol-3-phosphate dehydrogenase (GPDH); format: biochemical; design: inhibition: dose or concentration left out as unconfirmed
T1 construct: The activity of GPDH in intact mitochondria (0.3 mg/mL) was measured; from tissue; host or cells: rat skeletal muscle mitochondria (Wistar, Harlan Laboratories)
T1 sequence (P35571 43-727): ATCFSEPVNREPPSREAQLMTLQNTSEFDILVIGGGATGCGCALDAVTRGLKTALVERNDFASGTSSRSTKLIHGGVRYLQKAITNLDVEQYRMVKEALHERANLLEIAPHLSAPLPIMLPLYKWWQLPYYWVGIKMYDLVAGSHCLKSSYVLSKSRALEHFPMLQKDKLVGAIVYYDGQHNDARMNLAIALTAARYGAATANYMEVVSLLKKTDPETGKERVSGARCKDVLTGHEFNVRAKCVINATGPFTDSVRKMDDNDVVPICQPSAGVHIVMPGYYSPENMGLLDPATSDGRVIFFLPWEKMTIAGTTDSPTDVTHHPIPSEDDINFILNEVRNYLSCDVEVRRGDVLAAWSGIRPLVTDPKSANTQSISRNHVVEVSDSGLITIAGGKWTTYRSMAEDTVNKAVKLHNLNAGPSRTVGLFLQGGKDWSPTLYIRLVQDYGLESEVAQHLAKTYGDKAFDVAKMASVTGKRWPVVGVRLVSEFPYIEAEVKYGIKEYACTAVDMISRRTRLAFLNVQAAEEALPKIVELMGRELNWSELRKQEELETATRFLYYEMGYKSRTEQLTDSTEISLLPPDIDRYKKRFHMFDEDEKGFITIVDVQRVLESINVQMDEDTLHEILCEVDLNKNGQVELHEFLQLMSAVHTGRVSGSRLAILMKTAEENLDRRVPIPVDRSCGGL

[3] = target: T2, flavin binding site of complex I (IF) (Rattus norvegicus, UniProt Q5XIH3); assay: High-throughput screen: ROS production from flavin binding site of complex I (IF); format: biochemical
T2 construct: freshly isolated muscle mitochondria were assayed; from tissue; host or cells: rat skeletal muscle mitochondria (Wistar, Harlan Laboratories)

[4] = test system: ubiquinone binding site of complex I (IQ); assay: High-throughput screen: ROS production from ubiquinone binding site of complex I (IQ), isolated skeletal muscle mitochondria; format: biochemical, rat; details: for IQ: percent change in ROS from DMSO controls; for % Reduction in ROS production (IQ): Table 2, 5 mM succinate, compounds 2.5 μM, percent change from DMSO, positive control −100%
[5] = target: T3, succinate dehydrogenase/complex II (SDH) (Rattus norvegicus, UniProt P21913+Q641Z9+Q6PCT8+Q920L2); assay: High-throughput screen: ROS production from succinate dehydrogenase/complex II (SDH); format: biochemical; details: for % Reduction in ROS Production (SDH): Table 5, 15 μM palmitoyl carnitine, 2.5 μM antimycin A, 2 μM myxothiazol, compounds 2.5 μM, percent change from DMSO
T3 construct: freshly isolated muscle mitochondria were assayed; from tissue; host or cells: rat skeletal muscle mitochondria (Wistar, Harlan Laboratories)

[6] = target: T4, outer ubiquinone binding site of complex III (IIIQO) (Rattus norvegicus, UniProt P00159+P20788); assay: High-throughput screen: ROS production from outer ubiquinone binding site of complex III (IIIQO); format: biochemical
T4 construct: freshly isolated muscle mitochondria were assayed; from tissue; host or cells: rat skeletal muscle mitochondria (Wistar, Harlan Laboratories)
Protocol: Skeletal muscle mitochondria were isolated from 5-8 week old female Wistar rats (Harlan Laboratories). Minced muscle was homogenized in buffer containing bacterial protease Type VIII prior to differential centrifugation to separate mitochondria from other tissue components. Unless otherwise stated, freshly isolated muscle mitochondria were assayed in buffer containing 120 mM KCl, 5 mM HEPES, 1 mM EGTA, 0.3% (w/v) bovine serum albumin. Where indicated, CaCl2 was added to yield a final free concentration of 250 nM calcium at pH 7.0 at 37° C.
Compounds (10 mM in DMSO) were randomly selected from a library of 24,000 compounds obtained from ChemBridge and curated by the lab of Robert Hughes at the Buck Institute. Master screening plates were prepared using a Biomek FX liquid handling workstation (Beckman) to transfer 1 μL of each compound into individual wells on 96-well storage plates (80 compounds per plate). Master plates were sealed with foil and stored at −80° C. Just prior to use, plates were brought to room temperature and diluted 300-fold with standard buffer (13.3X=33.3 μM). To monitor the performance of each assay throughout screening and to provide intra-plate normalization reference points, DMSO negative controls and known mitochondrial inhibitor positive controls were included on each Master compound plate.
Total amounts of superoxide and H2O2 production were determined fluorometrically as H2O2, without distinguishing between them, in the presence of exogenous superoxide dismutase (25 units/mL final), horseradish peroxidase (1 unit/mL final), and Amplex UltraRed (25 μM final) as described (Affourtit, C. et al. (2012) Measurement of proton leak and electron leak in isolated mitochondria. Methods Mol. Biol. 810: 165-82). Just prior to use, a bulk 3.3X solution was made in standard buffer and distributed into a 2 mL deep well 96-well transfer plate.
To assess the effects of a compound on ROS production from the outer ubiquinone binding site of complex III (IIIQO), Start Solution containing 5 mM succinate, 4 μM rotenone and 2.5 μM antimycin A was distributed into standard 96-well transfer plates. A Biomek FX workstation was programmed to dispense solutions into black 96-well assay plates. Solutions were dispensed to all assay plates in the following order: ROS Detection solution described in Example 3, Mitochondria solution described in Example 1 to a final concentration of 0.1 mg/ml, and Compound dilutions described in Example 2. Duplicate assay plates were made and each was initiated by the addition of 3.3X Start solution containing 5 mM succinate, 4 μM rotenone and 2.5 μM antimycin A. Plates were incubated in the dark at room temperature for 30-40 minutes before acquiring endpoint fluorescence using a Victor 3V plate reader (Perkin Elmer) equipped with 550/590 nm excitation/emission filters.
The fluorescence values in each well were scaled as the percent change from the intra-plate DMSO controls with the appropriate inhibitor positive controls defined as −100%. Following initial scaling, intra-plate normalized values were subjected to Tukey's two-way median polish to remove row and column dependent positional effects (Malo et al., 2006).

[7] = Table 7, percent change in ROS from DMSO controls
[8] = Table 8, percent change in ROS from DMSO controls
[9] = Table 9, percent change in ROS from DMSO controls
[10] = Table 3, 5 mM glutamate, 5 mM malate, 4 μM rotenone, compounds 2.5 μM, percent change from DMSO, positive control −100%, read-out: % Reduction in ROS production (IF)
[11] = Table 8, percent change in ROS from DMSO controls, read-out: IF
[12] = Table 4, 5 mM succinate, 4 μM rotenone, 2.5 μM antimycin A, compounds 2.5 μM, percent change from DMSO, read-out: % Reduction in ROS production (IIIQO)
[13] = Table 8, percent change in ROS from DMSO controls, read-out: IIIQO
[14] = Table 7, percent change in ROS from DMSO controls, read-out: IF
[15] = Table 7, percent change in ROS from DMSO controls, read-out: IIIQO
[16] = Table 9, percent change in ROS from DMSO controls, read-out: IIIQo

T2 sequence (Q5XIH3 21-464 limits assumed, one chain of several): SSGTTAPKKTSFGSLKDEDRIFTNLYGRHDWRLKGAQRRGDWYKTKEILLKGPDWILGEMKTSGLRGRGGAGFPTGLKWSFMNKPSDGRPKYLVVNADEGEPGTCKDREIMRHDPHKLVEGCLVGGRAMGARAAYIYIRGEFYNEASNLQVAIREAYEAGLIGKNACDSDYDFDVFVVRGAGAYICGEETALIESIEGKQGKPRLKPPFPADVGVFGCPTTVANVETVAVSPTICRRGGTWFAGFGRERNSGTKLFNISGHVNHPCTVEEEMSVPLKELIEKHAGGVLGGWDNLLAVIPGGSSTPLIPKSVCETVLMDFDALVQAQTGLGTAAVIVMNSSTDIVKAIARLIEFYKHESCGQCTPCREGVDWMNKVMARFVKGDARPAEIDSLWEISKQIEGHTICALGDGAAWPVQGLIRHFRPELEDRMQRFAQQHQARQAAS
T3 sequence (Q920L2 35-656): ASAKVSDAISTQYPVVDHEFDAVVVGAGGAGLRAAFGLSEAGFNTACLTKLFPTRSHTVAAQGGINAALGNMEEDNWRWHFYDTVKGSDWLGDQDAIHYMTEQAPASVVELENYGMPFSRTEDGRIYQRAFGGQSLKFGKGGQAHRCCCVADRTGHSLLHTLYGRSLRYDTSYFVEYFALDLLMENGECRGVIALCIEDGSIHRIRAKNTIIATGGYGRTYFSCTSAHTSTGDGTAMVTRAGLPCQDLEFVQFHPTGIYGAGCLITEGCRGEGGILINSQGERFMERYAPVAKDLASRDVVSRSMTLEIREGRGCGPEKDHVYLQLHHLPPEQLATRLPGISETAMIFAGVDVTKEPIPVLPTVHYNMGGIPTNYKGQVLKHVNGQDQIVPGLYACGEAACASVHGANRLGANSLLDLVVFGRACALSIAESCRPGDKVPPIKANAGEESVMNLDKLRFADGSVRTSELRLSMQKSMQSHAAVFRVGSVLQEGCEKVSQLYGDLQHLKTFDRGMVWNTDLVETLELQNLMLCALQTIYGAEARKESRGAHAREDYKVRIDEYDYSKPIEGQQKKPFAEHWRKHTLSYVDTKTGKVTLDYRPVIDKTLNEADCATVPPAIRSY
T3 sequence (P21913 31-282): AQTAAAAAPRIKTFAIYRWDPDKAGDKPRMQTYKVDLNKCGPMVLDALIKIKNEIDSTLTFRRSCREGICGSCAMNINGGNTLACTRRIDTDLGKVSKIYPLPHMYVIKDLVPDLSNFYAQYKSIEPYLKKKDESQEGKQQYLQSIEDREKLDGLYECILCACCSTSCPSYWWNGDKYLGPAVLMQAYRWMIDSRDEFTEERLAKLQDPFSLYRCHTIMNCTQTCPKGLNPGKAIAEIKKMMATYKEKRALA
T3 sequence (Q641Z9 30-169 limits assumed): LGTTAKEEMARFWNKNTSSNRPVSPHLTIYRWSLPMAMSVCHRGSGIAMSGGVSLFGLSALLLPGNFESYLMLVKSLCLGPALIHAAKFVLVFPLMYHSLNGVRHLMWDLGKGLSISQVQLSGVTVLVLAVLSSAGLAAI
T3 sequence (Q6PCT8 57-159): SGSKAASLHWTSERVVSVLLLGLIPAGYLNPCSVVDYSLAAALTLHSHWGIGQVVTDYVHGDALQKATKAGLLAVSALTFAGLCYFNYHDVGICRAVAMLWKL

Structure (SMILES)	ΔΨm ([1]; Table 8, glutamate)	ΔΨm ([1]; Table 9, glutamate)	GPDH [2, 8]	GPDH [2, 9]	IF [3, 8]	IF [3, 9]	IQ ([4]; Table 7)	IQ ([4]; Table 8)	IQ ([4]; Table 9)	SDH [5, 8]	SDH [5, 9]	IIIQO [6, 8]	inhibition at 2.5 µM [6, 12]	inhibition [2, 7]	inhibition at 2.5 µM [3, 14]	% Reduction in ROS production (IQ) [4]	inhibition at 2.5 µM [5, 7]	inhibition at 2.5 µM [6, 15]	inhibition at 2.5 µM [6, 16]	other results
O=C(Nc1ccccc1[N+](=O)[O-])c1cccc(S(=O)(=O)Nc2ccccc2)c1 [Compound 73]	−0.2	−0.2	−2.4	−2.4	−0.7	−0.7	−4.6	−4.6	−4.6	−26.9	−26.9	−1.3								GPDH [2, 7]: −2.4; IF [3, 7]: −0.7; % Reduction in ROS Production (SDH) [5]: −26.9%; SDH [5, 7]: −26.9; IIIQO [6, 7]: −1.3; IIIQO [6, 9]: −1.3
Cc1cc(OCC(O)CN(Cc2ccccc2)C(C)(C)C)ccc1[N+](=O)[O-] (stereo not shown) [Compound 82]	0		0		−34			−2		−35		−10								% Reduction in ROS production (IF) ([3]; Table 3, 5 mM glutamate, 5 mM malate, 4 μM rotenone, compounds 2.5 μM, percent change from DMSO, positive control −100%): −34%; % Reduction in ROS Production (SDH) [5]: −35%
CCC1CCCCN1C/C=C/c1ccc(N(C)C)cc1 (stereo not shown) [Compound 80]	0							0					12%							inhibition at 2.5 µM ([2]; Table 6, 25 mM glycerol phosphate, rotenone, antimycin A, malonate, myxothiazol, compounds 2.5 μM, scaled to IQ positive controls, read-out: % Reduction in ROS Production (GPDH)): 11%; inhibition [2, 8]: 11%; inhibition at 2.5 µM [3, 10]: 23%; inhibition at 2.5 µM [3, 11]: 23%; inhibition at 2.5 µM [5, 8]: -4%; inhibition at 2.5 µM [6, 13]: 12%
Cc1ccccc1NS(=O)(=O)c1ccc(C2CCCCC2)cc1 [Compound 9]	−0.1	−0.1	1.0	1.0	0.4	0.4	−31.2	−31.2	−31.2	0.3	0.3	−2.7		-1%	-0.4%	−31.2%	-0.3%	2.7%	2.7%	
c1cc2c3c(ccc(CSCCc4ccncc4)c3c1)CC2 [Compound 36]	0.0	0.0	−4.9	−4.9	0.6	0.6	3.7	3.7	3.7	−1.1	−1.1	−33.6	33.6%	4.9%	-0.6%		1.1%	33.6%	33.6%	
Cc1ccccc1NS(=O)(=O)c1ccc(-c2ccc(S(=O)(=O)Nc3ccccc3C)cc2)cc1 [Compound 12]	−0.5	−0.5	0.5	0.5	−1.7	−1.7	−20.7	−20.7	−20.7	−0.1	−0.1	0.2		-0.5%	1.7%	−20.7%	0.1%	-0.2%	-0.2%	
COc1ccc(-c2ccccc2)cc1NCC1=CC[C@H]2C[C@@H]1C2(C)C [Compound 41]	2.3	2.3	2.6	2.6	6.6	6.6	0.2	0.2	0.2	1.2	1.2	−24.7	24.7%	-2.6%	-6.6%		-1.2%	24.7%	24.7%	
CC(C)Cc1ccc(C(C)C(=O)Nc2ccccc2O)cc1 (stereo not shown) [Compound 5]	−3.5	−3.5	0.7	0.7	0.2	0.2	−40.0	−40.0	−40.0	2.3	2.3	−3.6		-0.7%	-0.2%	−40.0%	-2.3%	3.6%	3.6%	
Cc1cc(C)c(OCC(O)CNC(C)(C)CC(C)(C)C)c(C)c1.Cl (stereo not shown) [Compound 14]	−0.7	−0.7					−4.7	−4.7	−4.7			−2.9								GPDH [2]: −3.9; % Reduction in ROS production (IF) [3]: −37.7%; IF [3]: −37.7; SDH [5]: −9.6; IIIQO [6, 7]: −2.9; IIIQO [6, 9]: −2.9
O=C(Nc1nn[nH]n1)C1CCCCC1 [Compound 76]	0							−24								−24%				inhibition [2, 8]: 0%; inhibition at 2.5 µM [3, 10]: 34%; inhibition at 2.5 µM [3, 11]: 34%; inhibition at 2.5 µM [5, 8]: -3%; inhibition at 2.5 µM [6, 13]: 0%
